Several values for one entry are separate records, joined by “and”; a condition that tells them apart may be missing. Equal values may be shown once.
Test system: 171881-019-R-J1-PDC tumor spheroids, viability
Assay: Anticancer human tumor 171881-019-R-J1-PDC patient-derived invasive breast carcinoma cell line growth inhibition [GQUAD]
Settings: spheroids with HUVEC and MSC; for viability, T/C: stronger effect = lower value
Summary of the method: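 Viability of tumor cells grown as complex spheroids with endothelial and stromal cells, exposed to drug combinations. Top concentration at or near clinical Cmax (else 10 microM), diluted in half-log increments.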
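Note: spheroids exposed to compounds for 7 days.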
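Throughout, for viability, T/C: 100% = DMSO vehicle control viability.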

COc1ccc([C@@H](O)c2cc(-c3ncnc4cc(N5CCOCC5)ccc34)c(F)cc2Cl)nn1 + Cc1[nH]c2ccc(F)cc2c1-c1nc2c3cccnc3c3ncccc3c2[nH]1
IC50 (curve of first compound, second compound 0.0316 µM): 740 nM
IC50 (curve of first compound, second compound 0.1 µM): 756 nM
IC50 (curve of first compound, second compound 0.316 µM): 573 nM
IC50 (curve of first compound, second compound 1 µM): 429 nM
IC50 (curve of first compound, second compound 3.16 µM): < 31.6 nM
IC50 (curve of first compound, second compound 10 µM): < 31.6 nM
viability, T/C (second compound 0.0316 µM, first compound 0.0316 µM): 107%
viability, T/C (second compound 0.0316 µM, first compound 0.1 µM): 81.3%
viability, T/C (second compound 0.0316 µM, first compound 0.316 µM): 74.5%
viability, T/C (second compound 0.0316 µM, first compound 1 µM): 45%
viability, T/C (second compound 0.0316 µM, first compound 3.16 µM): 14.7%
viability, T/C (second compound 0.0316 µM, first compound 10 µM): 5.38%
viability, T/C (second compound 0.1 µM, first compound 0.0316 µM): 87.2%
viability, T/C (second compound 0.1 µM, first compound 0.1 µM): 84.5%
viability, T/C (second compound 0.1 µM, first compound 0.316 µM): 70.1%
viability, T/C (second compound 0.1 µM, first compound 1 µM): 44.6%
viability, T/C (second compound 0.1 µM, first compound 3.16 µM): 14%
viability, T/C (second compound 0.1 µM, first compound 10 µM): 5.6%
viability, T/C (second compound 0.316 µM, first compound 0.0316 µM): 85.6%
viability, T/C (second compound 0.316 µM, first compound 0.1 µM): 90.2%
viability, T/C (second compound 0.316 µM, first compound 0.316 µM): 56.5%
viability, T/C (second compound 0.316 µM, first compound 1 µM): 41%
viability, T/C (second compound 0.316 µM, first compound 3.16 µM): 15.5%
viability, T/C (second compound 0.316 µM, first compound 10 µM): 5.95%
viability, T/C (second compound 1 µM, first compound 0.0316 µM): 94.2%
viability, T/C (second compound 1 µM, first compound 0.1 µM): 67%
viability, T/C (second compound 1 µM, first compound 0.316 µM): 64.4%
viability, T/C (second compound 1 µM, first compound 1 µM): 32.3%
viability, T/C (second compound 1 µM, first compound 3.16 µM): 12.2%
viability, T/C (second compound 1 µM, first compound 10 µM): 6.67%
viability, T/C (second compound 3.16 µM, first compound 0.0316 µM): 28.9%
viability, T/C (second compound 3.16 µM, first compound 0.1 µM): 15.3%
viability, T/C (second compound 3.16 µM, first compound 0.316 µM): 14.5%
viability, T/C (second compound 3.16 µM, first compound 1 µM): 9.07%
viability, T/C (second compound 3.16 µM, first compound 3.16 µM): 8.31%
viability, T/C (second compound 3.16 µM, first compound 10 µM): 4.66%
viability, T/C (second compound 10 µM, first compound 0.0316 µM): 37.8%
viability, T/C (second compound 10 µM, first compound 0.1 µM): 45.4%
viability, T/C (second compound 10 µM, first compound 0.316 µM): 26.6%
viability, T/C (second compound 10 µM, first compound 1 µM): 17.3%
viability, T/C (second compound 10 µM, first compound 3.16 µM): 9.52%
viability, T/C (second compound 10 µM, first compound 10 µM): 5.39%

C=CC(=O)N1CCN(c2nc(=O)n(-c3c(C)ccnc3C(C)C)c3nc(-c4c(O)cccc4F)c(F)cc23)C(C)C1 (stereo not drawn)
viability, T/C (compound 0.0316 µM): 85.8% and 97% and 88.1%
viability, T/C (compound 0.1 µM): 94.8% and 102% and 105%
viability, T/C (compound 0.316 µM): 101% (2×) and 104%
viability, T/C (compound 1 µM): 104% (2×) and 108%
viability, T/C (compound 3.16 µM): 96.7% and 93.7% and 96.9%
viability, T/C (compound 10 µM): 51.8% and 53.1% and 55.6%
IC50 (curve of compound): > 10000 nM

CC(=O)O[C@H]1C(=O)[C@@]2(C)[C@H]([C@H](OC(=O)c3ccccc3)[C@]3(O)C[C@H](OC(=O)[C@H](O)[C@@H](NC(=O)c4ccccc4)c4ccccc4)C(C)=C1C3(C)C)[C@]1(OC(C)=O)CO[C@@H]1C[C@@H]2O
viability, T/C (compound 0.0316 µM): 50.5% and 44.8% and 33.4%
viability, T/C (compound 0.1 µM): 32.6% and 33.4% and 25.7%
viability, T/C (compound 0.316 µM): 32% and 29.3% and 21.5%
viability, T/C (compound 1 µM): 29.8% and 26.7% and 22.8%
viability, T/C (compound 3.16 µM): 29.6% and 24.3% and 23.2%
viability, T/C (compound 10 µM): 29.6% (2×) and 24%
IC50 (curve of compound): < 31.6 nM

CC[C@@]1(O)C(=O)OCc2c1cc1n(c2=O)Cc2cc3c(CN(C)C)c(O)ccc3nc2-1
viability, T/C (compound 0.000999 µM): 84.9% and 109% and 105%
viability, T/C (compound 0.00316 µM): 89.6% and 94.4% and 100%
viability, T/C (compound 0.00999 µM): 96.2% and 103% and 85.5%
viability, T/C (compound 0.0316 µM): 88.4% and 94.7% and 87.2%
viability, T/C (compound 0.0999 µM): 48.2% and 59.4% and 42.4%
viability, T/C (compound 0.316 µM): 35.1% (2×) and 48.3%
IC50 (curve of compound): 95 nM and 266 nM and 83.1 nM
